Source: PMC11500415, “Chemical inhibition of stomatal differentiation by perturbation of the master-regulatory bHLH heterodimer via an ACT-Like domain” (Nature Communications, 2024)

How the values were obtained:
Assay in all cases: ITC direct binding
Parameters in all cases: species or system A. thaliana
FAMA = target: T1, FAMA (Arabidopsis thaliana, UniProt Q56YJ8)
T1 construct: ΔNFAMA (190-414); made in house; host or cells: E. coli BL21
From the text: (§1) A. thaliana SCRM (1-494), ΔNSPCH (98-364), MUTE (1-202), ΔNFAMA (190-414), MUTEΔC (1-114), MUTER133A_R134A, MUTEE162A_E163A, MUTER133A_R134A_E162A_E163A, SCRM-ACTL (405-494), MUTE-ACTL (114-202), SPCH-ACTL (285-364), FAMA-ACTL (306-414), MUTE_ACTLR133A_R134A, MUTE_ACTLE162A_E163A, MUTE_ACTLR133A_R134A_E162A_E163A were cloned into pGEX-4T-1 vector with an N-terminal GST tag and a thrombin cleavage sequence. For protein expression, the constructs were transformed into E. coli strain BL21. For each transformant, a single colony was selected and incubated in 10 ml LB liquid media. The overnight-incubated E. coli suspensions were transferred to 1 L LB medium and incubated at 37 °C for around 2 h until the OD600 reached 0.4–0.6. The isopropyl β-D-1-thiogalactopyranoside ([…] of final concentration) was added to the cultures and the strains were incubated at 22 °C for a further 18 h. GST-fused proteins were purified using glutathione agarose resin. The soluble portion of the cell lysate was loaded onto a GST-Sepharose column. Nonspecifically bound proteins were removed by washing the column with 20 mM Tris pH 8.0, 200 mM NaCl. The bound GST-fused protein was eluted with 10 mm glutathione and 20 mM Tris pH 8.0, 200 mM NaCl. The GST-fused proteins were exchanged with phosphate-buffered saline buffer, and then the solution was treated with 50 μg of thrombin for 10–12 h at 16 ^οC. The GST portion of the protein was cleaved during thrombin digestion, and then the whole solution was reloaded onto the glutathione S-transferase column to obtain pure protein. The purified proteins were further purified by gel filtration on a Superdex-200 (GE) column using fast protein liquid chromatography and phosphate buffer (pH 7.2) as the eluent. The purity of the protein was checked by SDS-PAGE. For detailed lists of oligo DNA and plasmid information, see Supplementary Tables 5, 6, respectively.
(§2) Binding of the small molecule Stomidazolone (3) to SCRM, MUTE, SPCH, FAMA, MUTEΔC, MUTE_ACTL, SCRM_ACTL, SPCH_ACTL and FAMA_ACTL, MUTER133A_R134A, MUTEE162A_E163A, MUTER133A_R134A_E162A_E163A, as well as SCRM binding to MUTE in the presence and absence of Stomidazolone (3) / AYSJ1059 (5) /AYSJ1061 (6) was characterized at 30 °C using a Malvern PEAQ-ITC microcalorimeter. All the protein samples were dialyzed overnight using PBS buffer containing 2% DMSO and 1 mM DTT. Stomidazolone was dissolved in PBS buffer containing 2% DMSO and 1 mM DTT. Titrations were performed by injecting 1 × 0.5-μL and 12 × 3-μL or 1 × 0.75-μL and 18 × 2-μL or 1 × 0.2-μL and 25 × 1.3-μL aliquots of 1 mM Stomidazolone / AYSJ1059 / AYSJ1061 to 5-30 μM of protein in PBS buffer pH 7.4, containing 2% DMSO and 1 mM DTT. All titrations were carried out at least twice. The raw data were corrected using buffer and protein controls and analyzed using the software supplied by the manufacturer. See Supplementary Table 3 for details.

MUTE = target: T2, MUTE (Arabidopsis thaliana, UniProt Q9M8K6)
T2 construct: MUTE (1-202); made in house; host or cells: E. coli BL21
T2 sequence (Q9M8K6 whole entry): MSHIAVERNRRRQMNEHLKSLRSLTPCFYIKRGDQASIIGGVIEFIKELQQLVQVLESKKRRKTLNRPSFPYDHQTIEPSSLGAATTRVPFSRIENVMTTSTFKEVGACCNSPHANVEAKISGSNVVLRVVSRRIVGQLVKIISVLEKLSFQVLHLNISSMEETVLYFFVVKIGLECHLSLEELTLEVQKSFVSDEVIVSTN
From the text: as §1, §2

MUTE_ACTLE162A_E163A = target: T3, MUTE_ACTLE162A_E163A (Arabidopsis thaliana, UniProt Q9M8K6, E162A/E163A)
T3 construct: MUTE-ACTL (114-202); made in house; host or cells: E. coli BL21
T3 sequence (Q9M8K6 114-202 E162A/E163A): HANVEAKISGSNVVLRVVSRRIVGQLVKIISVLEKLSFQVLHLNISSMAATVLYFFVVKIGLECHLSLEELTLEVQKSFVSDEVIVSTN
From the text: as §1, §2

MUTE_ACTLR133A_R134A = target: T4, MUTE_ACTLR133A_R134A (Arabidopsis thaliana, UniProt Q9M8K6, R133A/R134A); details: MUTE_ACTL R133A_R134A
T4 construct: MUTE-ACTL (114-202); made in house; host or cells: E. coli BL21
T4 sequence (Q9M8K6 114-202 R133A/R134A): as the sequence (Q9M8K6 114-202 E162A/E163A) above, with R20A, R21A, A49E, A50E counted along it
From the text: as §1, §2

SCRM_ACTL = target: T5, SCRM_ACTL (Arabidopsis thaliana, UniProt Q9LSE2)
T5 construct: SCRM-ACTL (405-494); GST (N, cleaved yes); made in house; host or cells: E. coli BL21
T5 sequence (Q9LSE2 405-494): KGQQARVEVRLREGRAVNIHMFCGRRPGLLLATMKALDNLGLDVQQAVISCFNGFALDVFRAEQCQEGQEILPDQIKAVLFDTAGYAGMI
From the text: as §1, §2

SPCH = target: T6, SPCH (Arabidopsis thaliana, UniProt Q700C7)
T6 construct: ΔNSPCH (98-364); made in house; host or cells: E. coli BL21
T6 sequence (Q700C7 98-364): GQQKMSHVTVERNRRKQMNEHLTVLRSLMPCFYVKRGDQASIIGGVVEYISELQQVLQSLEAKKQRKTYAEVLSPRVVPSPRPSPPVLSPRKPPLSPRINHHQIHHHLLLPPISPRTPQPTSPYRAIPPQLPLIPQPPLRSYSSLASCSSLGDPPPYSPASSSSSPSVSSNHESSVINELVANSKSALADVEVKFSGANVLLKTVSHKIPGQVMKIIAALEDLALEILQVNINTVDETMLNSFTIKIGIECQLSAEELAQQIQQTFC
From the text: as §1, §2

SPCH_ACTL = target: T7, SPCH_ACTL (Arabidopsis thaliana, UniProt Q700C7)
T7 construct: SPCH-ACTL (285-364); GST (N, cleaved yes); made in house; host or cells: E. coli BL21
T7 sequence (Q700C7 285-364): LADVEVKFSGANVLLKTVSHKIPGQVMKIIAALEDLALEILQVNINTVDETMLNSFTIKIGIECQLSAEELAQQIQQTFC
From the text: as §1, §2

T1 sequence (Q56YJ8 190-414): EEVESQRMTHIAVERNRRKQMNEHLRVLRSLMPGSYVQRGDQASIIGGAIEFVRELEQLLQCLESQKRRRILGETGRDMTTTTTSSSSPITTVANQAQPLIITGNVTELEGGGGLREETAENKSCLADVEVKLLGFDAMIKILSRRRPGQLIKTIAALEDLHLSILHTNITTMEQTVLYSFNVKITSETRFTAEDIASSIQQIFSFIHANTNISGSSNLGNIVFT

O=C1C(c2ccccc2)=NC(NS(=O)(=O)c2ccccc2)(c2ccccc2)N1S(=O)(=O)c1ccccc1 (centres unmarked) [Stomidazolone]
-T△S (FAMA): 2.4 ± 0.3
Kd (FAMA): 80.4 ± 4.1 µM
△G (FAMA): -1.8 ± 0.2
△H (FAMA): -4.2 ± 0.2
-T△S (MUTE): 17.3 ± 0.4
Kd (MUTE): 7.8 ± 1.1 µM
△G (MUTE): -3.3 ± 0.2
△H (MUTE): -20.6 ± 0.4
-T△S (MUTE_ACTLE162A_E163A; MUTE_ACTL E162A_E163A): 3.1 ± 0.3
Kd (MUTE_ACTLE162A_E163A; MUTE_ACTL E162A_E163A): 85.5 ± 5.5 µM
△G (MUTE_ACTLE162A_E163A; MUTE_ACTL E162A_E163A): -4.5 ± 0.2
△H (MUTE_ACTLE162A_E163A; MUTE_ACTL E162A_E163A): -7.6 ± 0.5
increase in the Kd value versus wild-type MUTE (MUTE_ACTLE162A_E163A; authors' response to reviewers, data of the original Fig. S3): ~5 fold
-T△S (MUTE_ACTLR133A_R134A): 5.1 ± 0.2
Kd (MUTE_ACTLR133A_R134A): 127 ± 28.5 µM
△G (MUTE_ACTLR133A_R134A): -3.8 ± 0.2
△H (MUTE_ACTLR133A_R134A): -8.9 ± 0.4
-T△S (SCRM_ACTL): 6.1 ± 0.2
Kd (SCRM_ACTL): 78.4 ± 5.1 µM
△G (SCRM_ACTL): -3.2 ± 0.2
△H (SCRM_ACTL): -9.3 ± 0.4
-T△S (SPCH): 3.6 ± 0.2
Kd (SPCH): 79.6 ± 3.6 µM
△G (SPCH): -2.6 ± 0.2
△H (SPCH): -6.2 ± 0.5
-T△S (SPCH_ACTL): 3.4 ± 0.2
Kd (SPCH_ACTL): 96.8 ± 7.6 µM
△G (SPCH_ACTL): -2.1 ± 0.2
△H (SPCH_ACTL): -5.5 ± 0.3
